Patent US20190307843A1, “SINGLE DOSE METHODS FOR PREVENTING AND TREATING FUNGAL INFECTIONS” (Cidara Therapeutics, Inc., priority 2016, published 2019)
Values after ≈ are worked out from the molar mass of the structure shown. Where two headings read alike, the source gives them in different places. Starred links: 1 amine or outer side, 2 acyl side, 3 side chain; linkers in the order of their positions; H or OH if unused. Positions of bridges follow the written chain, without caps; N, C: chain ends. Non-standard residues stand in square brackets, D forms with d. Residues, ends and D or L forms follow the SMILES beside them. *: point of attachment. hTyr(3S-OH,4S-OH,3'-OSO3H) = N[C@H](C(=O)O)[C@H](O)[C@@H](O)c1ccc(O)c(OS(=O)(=O)O)c1; Orn(4R-OH,5R-OH) = O=C([C@H](C[C@@H](O)[C@@H](O)N[*:3])N[*:1])[*:2]; Pro(3S-OH,4S-Me) = C[C@H]1CN[C@H](C(=O)O)[C@H]1O; X1 = CCCCCOc1ccc(-c2cc(-c3ccc(C(=O)*)cc3)no2)cc1; Gln(3R-OH) = NC(=O)C[C@@H](O)[C@H](N)C(=O)O; Hyp = O=C(O)[C@@H]1C[C@@H](O)CN1

Tests used:
Candida auris strains = assay: Candida auris antifungal susceptibility testing (CLSI M27-A3), 38 strains; type: cell-based; conditions: for MIC: Candidozyma auris, read-out: MIC
[1] = test system: A. fumigatus strain AF293; assay: Murine model of pulmonary aspergillosis (Example 13), survival

Question: Which results are given for `CCCCCOc1ccc(-c2cc(-c3ccc(C(=O)N[C@H]4C[C@@H](O)[C@@H](O)NC(=O)[C@@H]5[C@@H](O)[C@@H](C)CN5C(=O)[C@H]([C@H](O)CC(N)=O)NC(=O)[C@H]([C@H](O)[C@@H](O)c5ccc(O)c(OS(=O)(=O)O)c5)NC(=O)[C@@H]5C[C@@H](O)CN5C(=O)[C@H]([C@@H](C)O)NC4=O)cc3)no2)cc1` [Micafungin, micafungin] (X1-[Orn(4R-OH,5R-OH)]T[Hyp][hTyr(3S-OH,4S-OH,3'-OSO3H)][Gln(3R-OH)][Pro(3S-OH,4S-Me)]; lactam 1-C)?
Answer: number of resistant isolates (Candida auris strains): 4; MIC (Candida auris strains; 24 h, strain 1 VPCI 669/P/12, 24 h): 0.125 µg/mL (≈ 0.0984 µM); MIC (Candida auris strains; 24 h, strain 2 VCPI 671/P/12, 24 h): 0.125 µg/mL (≈ 0.0984 µM); MIC (Candida auris strains; 24 h, strain 3 VCPI 674/P/12, 24 h): 0.06 µg/mL (≈ 0.0472 µM); MIC (Candida auris strains; 24 h, strain 4 VCPI 683/P/12, 24 h): 0.125 µg/mL (≈ 0.0984 µM); MIC (Candida auris strains; 24 h, strain 5 VCPI 692/P/12, 24 h): 0.125 µg/mL (≈ 0.0984 µM); MIC (Candida auris strains; 24 h, strain 6 VCPI 712/P/12, 24 h): 0.125 µg/mL (≈ 0.0984 µM); MIC (Candida auris strains; 24 h, strain 7 VCPI 471/P/13, 24 h): 0.25 µg/mL (≈ 0.197 µM); MIC (Candida auris strains; 24 h, strain 8 VCPI 475/P/13, 24 h): 0.125 µg/mL (≈ 0.0984 µM); MIC (Candida auris strains; 24 h, strain 9 VCPI 478/P/13, 24 h): 0.125 µg/mL (≈ 0.0984 µM); MIC (Candida auris strains; 24 h, strain 10 VCPI 479/P/13, 24 h): 0.125 µg/mL (≈ 0.0984 µM); MIC (Candida auris strains; 24 h, strain 11 VCPI 480/P/13, 24 h): 0.125 µg/mL (≈ 0.0984 µM); MIC (Candida auris strains; 24 h, strain 12 VCPI 482/P/13, 24 h): 0.125 µg/mL (≈ 0.0984 µM); MIC (Candida auris strains; 24 h, strain 13 VCPI 483/P/13, 24 h): 0.125 µg/mL (≈ 0.0984 µM); MIC (Candida auris strains; 24 h, strain 14 VCPI 1130/P/13, 24 h): 0.125 µg/mL (≈ 0.0984 µM); MIC (Candida auris strains; 24 h, strain 15 VCPI 1132/P/13, 24 h): 0.125 µg/mL (≈ 0.0984 µM); MIC (Candida auris strains; 24 h, strain 16 VCPI 1133/P/13, 24 h): 16 µg/mL (≈ 12.6 µM); MIC (Candida auris strains; 24 h, strain 17 VCPI 105/P/14, 24 h): 0.125 µg/mL (≈ 0.0984 µM); MIC (Candida auris strains; 24 h, strain 18 VCPI 107/P/14, 24 h): 0.06 µg/mL (≈ 0.0472 µM); MIC (Candida auris strains; 24 h, strain 19 VCPI 510/P/14, 24 h): 0.125 µg/mL (≈ 0.0984 µM); MIC (Candida auris strains; 24 h, strain 20 VCPI 511/P/14, 24 h): 0.125 µg/mL (≈ 0.0984 µM); MIC (Candida auris strains; 24 h, strain 21 VCPI 512/P/14, 24 h): 0.125 µg/mL (≈ 0.0984 µM); MIC (Candida auris strains; 24 h, strain 22 VCPI 513/P/14, 24 h): 0.125 µg/mL (≈ 0.0984 µM); MIC (Candida auris strains; 24 h, strain 23 VCPI 514/P/14, 24 h): 0.25 µg/mL (≈ 0.197 µM); MIC (Candida auris strains; 24 h, strain 24 VCPI 250/P/14, 24 h): 0.125 µg/mL (≈ 0.0984 µM); MIC (Candida auris strains; 24 h, strain 25 VCPI 265/P/14, 24 h): 16 µg/mL (≈ 12.6 µM); MIC (Candida auris strains; 24 h, strain 26 VCPI 266/P/14, 24 h): 0.125 µg/mL (≈ 0.0984 µM); MIC (Candida auris strains; 24 h, strain 27 VCPI 462/P/14, 24 h): 16 µg/mL (≈ 12.6 µM); MIC (Candida auris strains; 24 h, strain 28 VCPI 463/P/14, 24 h): 0.125 µg/mL (≈ 0.0984 µM); MIC (Candida auris strains; 24 h, strain 29 VCPI 467/P/14, 24 h): 0.25 µg/mL (≈ 0.197 µM); MIC (Candida auris strains; 24 h, strain 31 VCPI 478/P/14, 24 h): 0.5 µg/mL (≈ 0.394 µM); MIC (Candida auris strains; 24 h, strain 32 VCPI 518/P/14, 24 h): 0.25 µg/mL (≈ 0.197 µM); MIC (Candida auris strains; 24 h, strain 33 VCPI 550/P/14, 24 h): 0.25 µg/mL (≈ 0.197 µM); MIC (Candida auris strains; 24 h, strain 34 VCPI 714/P/14, 24 h): 0.125 µg/mL (≈ 0.0984 µM); MIC (Candida auris strains; 24 h, strain 35 VCPI 717/P/14, 24 h): 0.125 µg/mL (≈ 0.0984 µM); MIC (Candida auris strains; 24 h, strain 36 VCPI 1060/P/14, 24 h): 0.25 µg/mL (≈ 0.197 µM); MIC (Candida auris strains; 24 h, strain 37 VCPI 74/P/15, 24 h): 0.25 µg/mL (≈ 0.197 µM); MIC (Candida auris strains; 24 h, strain 38 VCPI 213/P/15, 24 h): 0.25 µg/mL (≈ 0.197 µM); MIC (Candida auris strains; 24 h): 16 µg/mL (≈ 12.6 µM); MIC (Candida auris strains; 48 h, strain 1 VPCI 669/P/12, 48 h): 0.25 µg/mL (≈ 0.197 µM); MIC (Candida auris strains; 48 h, strain 2 VCPI 671/P/12, 48 h): 0.25 µg/mL (≈ 0.197 µM); MIC (Candida auris strains; 48 h, strain 3 VCPI 674/P/12, 48 h): 0.125 µg/mL (≈ 0.0984 µM); MIC (Candida auris strains; 48 h, strain 4 VCPI 683/P/12, 48 h): 0.25 µg/mL (≈ 0.197 µM); MIC (Candida auris strains; 48 h, strain 5 VCPI 692/P/12, 48 h): 0.25 µg/mL (≈ 0.197 µM); MIC (Candida auris strains; 48 h, strain 6 VCPI 712/P/12, 48 h): 0.125 µg/mL (≈ 0.0984 µM); MIC (Candida auris strains; 48 h, strain 7 VCPI 471/P/13, 48 h): 0.25 µg/mL (≈ 0.197 µM); MIC (Candida auris strains; 48 h, strain 8 VCPI 475/P/13, 48 h): 0.25 µg/mL (≈ 0.197 µM); MIC (Candida auris strains; 48 h, strain 9 VCPI 478/P/13, 48 h): 0.125 µg/mL (≈ 0.0984 µM); MIC (Candida auris strains; 48 h, strain 10 VCPI 479/P/13, 48 h): 0.125 µg/mL (≈ 0.0984 µM); MIC (Candida auris strains; 48 h, strain 11 VCPI 480/P/13, 48 h): 0.125 µg/mL (≈ 0.0984 µM); MIC (Candida auris strains; 48 h, strain 12 VCPI 482/P/13, 48 h): 0.125 µg/mL (≈ 0.0984 µM); MIC (Candida auris strains; 48 h, strain 13 VCPI 483/P/13, 48 h): 0.125 µg/mL (≈ 0.0984 µM); MIC (Candida auris strains; 48 h, strain 14 VCPI 1130/P/13, 48 h): 0.125 µg/mL (≈ 0.0984 µM); MIC (Candida auris strains; 48 h, strain 15 VCPI 1132/P/13, 48 h): 0.125 µg/mL (≈ 0.0984 µM); MIC (Candida auris strains; 48 h, strain 16 VCPI 1133/P/13, 48 h): > 16 µg/mL; MIC (Candida auris strains; 48 h, strain 17 VCPI 105/P/14, 48 h): 0.125 µg/mL (≈ 0.0984 µM); MIC (Candida auris strains; 48 h, strain 18 VCPI 107/P/14, 48 h): 0.06 µg/mL (≈ 0.0472 µM); MIC (Candida auris strains; 48 h, strain 19 VCPI 510/P/14, 48 h): 0.125 µg/mL (≈ 0.0984 µM); MIC (Candida auris strains; 48 h, strain 20 VCPI 511/P/14, 48 h): 0.125 µg/mL (≈ 0.0984 µM); MIC (Candida auris strains; 48 h, strain 21 VCPI 512/P/14, 48 h): 0.125 µg/mL (≈ 0.0984 µM); MIC (Candida auris strains; 48 h, strain 22 VCPI 513/P/14, 48 h): 0.25 µg/mL (≈ 0.197 µM); MIC (Candida auris strains; 48 h, strain 23 VCPI 514/P/14, 48 h): 0.25 µg/mL (≈ 0.197 µM); MIC (Candida auris strains; 48 h, strain 24 VCPI 250/P/14, 48 h): 0.125 µg/mL (≈ 0.0984 µM); MIC (Candida auris strains; 48 h, strain 25 VCPI 265/P/14, 48 h): > 16 µg/mL; MIC (Candida auris strains; 48 h, strain 26 VCPI 266/P/14, 48 h): 0.125 µg/mL (≈ 0.0984 µM); MIC (Candida auris strains; 48 h, strain 27 VCPI 462/P/14, 48 h): > 16 µg/mL; MIC (Candida auris strains; 48 h, strain 28 VCPI 463/P/14, 48 h): 0.125 µg/mL (≈ 0.0984 µM); MIC (Candida auris strains; 48 h, strain 29 VCPI 467/P/14, 48 h): 0.25 µg/mL (≈ 0.197 µM); MIC (Candida auris strains; 48 h, strain 31 VCPI 478/P/14, 48 h): 0.5 µg/mL (≈ 0.394 µM); MIC (Candida auris strains; 48 h, strain 32 VCPI 518/P/14, 48 h): 0.5 µg/mL (≈ 0.394 µM); MIC (Candida auris strains; 48 h, strain 33 VCPI 550/P/14, 48 h): 0.5 µg/mL (≈ 0.394 µM); MIC (Candida auris strains; 48 h, strain 34 VCPI 714/P/14, 48 h): 0.25 µg/mL (≈ 0.197 µM); MIC (Candida auris strains; 48 h, strain 35 VCPI 717/P/14, 48 h): 0.125 µg/mL (≈ 0.0984 µM); MIC (Candida auris strains; 48 h, strain 36 VCPI 1060/P/14, 48 h): 0.25 µg/mL (≈ 0.197 µM); MIC (Candida auris strains; 48 h, strain 37 VCPI 74/P/15, 48 h): 0.25 µg/mL (≈ 0.197 µM); MIC (Candida auris strains; 48 h, strain 38 VCPI 213/P/15, 48 h): 0.25 µg/mL (≈ 0.197 µM); MIC (Candida auris strains; 48 h): > 16 µg/mL; Mean Survival ([1]; Micafungin 2 mg/kg IP Day 0): 75.3 h; Median Survival ([1]; Micafungin 2 mg/kg IP Day 0): 73.3 h; Mean Survival ([1]; Micafungin 2 mg/kg IP Day −1): 64.7 h; Median Survival ([1]; Micafungin 2 mg/kg IP Day −1): 64.7 h
